Key:
JAK1 = target: T1, JAK1 (Homo sapiens, UniProt P23458); experiment: Probe-based (AX9989) kinase profiling in Jurkat lysate: JAK1; format: binding; conditions: read-out: JAK1 Inhibition % at indicated screening concentration; for inhibition at 1 µM: screening concentration 1 μM; for inhibition at 10 µM: screening concentration 10 μM
T1 construct: screened for activity against several kinases in Jurkat cells; endogenous in cells; host or cells: Jurkat cell lysate
Outline: (§1)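 Read-out: LC/MS intensity of desthiobiotinylated kinase active-site peptides, percent inhibition normalized to no-compound lysate. Jurkat lysate with 20 mM MnCl2 received compound for 15 min at room temperature, then 5 μM AX9989 probe; duplicates.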

ERK5 = target: T2, ERK5 (Homo sapiens, UniProt Q13164); experiment: Probe-based (AX9989 acyl phosphate ATP probe) kinase profiling in Jurkat lysate: ERK5; format: binding; conditions: for IC50: calculated from percent inhibition and screening concentration, Jurkat lysate, AX9989 probe; for inhibition at 1 µM: screening concentration 1 μM; for inhibition at 1 µM / inhibition at 10 µM: read-out: ERK5 Inhibition % at indicated screening concentration; for inhibition at 10 µM: screening concentration 10 μM
T2 construct: screened for activity against several kinases in Jurkat cells; endogenous in cells; host or cells: Jurkat cell lysate
Outline: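 ERK5 IC50 values came from percent inhibition at the screening concentration, measured as loss of LC/MS signal of probe-labelled active-site peptides. Compound was added for 15 min at room temperature to Jurkat lysate (5 mg/ml, 20 mM MnCl2) before labelling with AX9989 ATP acyl phosphate probe at 5 μM.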

AMPKa1 or AMPKa2 = experiment: Probe-based (AX9989) kinase profiling in Jurkat lysate: AMPKa1 or AMPKa2; format: binding
Outline: as §1

ABL or ARG = experiment: Probe-based (AX9989) kinase profiling in Jurkat lysate: ABL or ARG; format: binding
Outline: as §1

TAO2 = target: T3, TAO2 (Homo sapiens, UniProt Q9UL54); experiment: Probe-based (AX9989) kinase profiling in Jurkat lysate: TAO2; format: binding; conditions: read-out: TAO2 Inhibition % at indicated screening concentration; for inhibition at 1 µM: screening concentration 1 μM; for inhibition at 10 µM: screening concentration 10 μM
T3 construct: screened for activity against several kinases in Jurkat cells; endogenous in cells; host or cells: Jurkat cell lysate
T3 sequence (Q9UL54 1-1235): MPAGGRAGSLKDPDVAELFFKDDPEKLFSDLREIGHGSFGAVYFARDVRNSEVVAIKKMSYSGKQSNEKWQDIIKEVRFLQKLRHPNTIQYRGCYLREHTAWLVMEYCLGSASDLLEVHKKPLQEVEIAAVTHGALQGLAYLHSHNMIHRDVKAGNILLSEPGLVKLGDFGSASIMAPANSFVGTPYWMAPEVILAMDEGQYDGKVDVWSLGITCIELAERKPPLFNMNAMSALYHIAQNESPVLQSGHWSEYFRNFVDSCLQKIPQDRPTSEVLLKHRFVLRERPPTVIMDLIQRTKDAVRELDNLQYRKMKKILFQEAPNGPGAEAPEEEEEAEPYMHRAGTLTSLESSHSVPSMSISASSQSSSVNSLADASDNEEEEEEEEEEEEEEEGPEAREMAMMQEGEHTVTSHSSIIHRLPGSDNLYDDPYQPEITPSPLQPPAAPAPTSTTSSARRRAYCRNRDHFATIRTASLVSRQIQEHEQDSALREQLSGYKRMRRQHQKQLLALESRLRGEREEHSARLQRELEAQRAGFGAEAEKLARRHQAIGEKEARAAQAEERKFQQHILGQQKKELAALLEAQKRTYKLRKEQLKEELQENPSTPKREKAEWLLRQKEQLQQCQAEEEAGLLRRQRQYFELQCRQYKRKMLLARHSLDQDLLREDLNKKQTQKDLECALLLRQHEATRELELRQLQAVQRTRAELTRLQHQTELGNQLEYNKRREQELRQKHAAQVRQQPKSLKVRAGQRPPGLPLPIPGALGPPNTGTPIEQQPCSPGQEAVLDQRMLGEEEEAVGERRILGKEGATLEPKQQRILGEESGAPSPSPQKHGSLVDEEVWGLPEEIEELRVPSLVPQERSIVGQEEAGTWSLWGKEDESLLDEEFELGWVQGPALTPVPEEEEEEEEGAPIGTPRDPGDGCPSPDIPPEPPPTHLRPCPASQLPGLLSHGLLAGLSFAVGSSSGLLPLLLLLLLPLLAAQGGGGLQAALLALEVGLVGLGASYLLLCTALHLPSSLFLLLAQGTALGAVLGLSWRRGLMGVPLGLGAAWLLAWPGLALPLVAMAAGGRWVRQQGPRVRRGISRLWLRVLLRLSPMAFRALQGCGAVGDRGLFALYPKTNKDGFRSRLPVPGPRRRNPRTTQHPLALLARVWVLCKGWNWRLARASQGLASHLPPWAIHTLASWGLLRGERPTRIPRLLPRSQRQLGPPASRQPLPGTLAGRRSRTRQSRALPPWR
Outline: as §1

AurB or AurC = experiment: Probe-based (AX9989) kinase profiling in Jurkat lysate: AurB or AurC; format: binding
Outline: as §1

ACK = target: T4, ACK (Homo sapiens, UniProt Q07912); experiment: Probe-based (AX9989) kinase profiling in Jurkat lysate: ACK; format: binding; conditions: read-out: ACK Inhibition % at indicated screening concentration; for inhibition at 1 µM: screening concentration 1 μM; for inhibition at 10 µM: screening concentration 10 μM
T4 construct: screened for activity against several kinases in Jurkat cells; endogenous in cells; host or cells: Jurkat cell lysate
Outline: as §1

human PBMCs = experiment: Human PBMC TNF-α response to endotoxin (ELISA); format: cell-based; conditions: 0.1 μg/ml LPS 16 h, read-out: EC50 for the inhibition of the human PBMC TNF-α response to endotoxin, ave. ± S.D.
Outline: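 PBMCs at 2e6 cells/ml in RPMI 1640 with 10% charcoal-dextran-treated FBS were pre-treated 1 h at 37 °C with compound (4-point 1:5 dilution from 10 μM). Stimulation with 0.1 μg/ml E. coli 0111:B4 LPS for 16 h; TNF-α measured by ELISA (A450) in 25-fold diluted supernatant.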

AurA = target: T5, AurA (Homo sapiens, UniProt O14965); experiment: Probe-based (AX9989) kinase profiling in Jurkat lysate: AurA; format: binding; conditions: read-out: AurA Inhibition % at indicated screening concentration; for inhibition at 1 µM: screening concentration 1 μM; for inhibition at 10 µM: screening concentration 10 μM
T5 construct: screened for activity against several kinases in Jurkat cells; endogenous in cells; host or cells: Jurkat cell lysate
T5 sequence (O14965 1-403): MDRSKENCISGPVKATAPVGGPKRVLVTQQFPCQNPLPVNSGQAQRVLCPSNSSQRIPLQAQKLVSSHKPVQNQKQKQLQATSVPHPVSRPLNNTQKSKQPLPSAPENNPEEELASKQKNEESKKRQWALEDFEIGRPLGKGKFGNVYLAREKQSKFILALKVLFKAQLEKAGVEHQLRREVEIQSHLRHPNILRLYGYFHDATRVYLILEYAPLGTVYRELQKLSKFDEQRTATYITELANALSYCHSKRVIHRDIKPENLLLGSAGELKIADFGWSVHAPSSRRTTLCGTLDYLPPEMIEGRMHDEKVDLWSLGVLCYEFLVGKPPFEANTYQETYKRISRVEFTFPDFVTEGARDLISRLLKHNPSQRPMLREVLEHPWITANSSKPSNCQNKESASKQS
Outline: as §1

T1 sequence (P23458 whole entry): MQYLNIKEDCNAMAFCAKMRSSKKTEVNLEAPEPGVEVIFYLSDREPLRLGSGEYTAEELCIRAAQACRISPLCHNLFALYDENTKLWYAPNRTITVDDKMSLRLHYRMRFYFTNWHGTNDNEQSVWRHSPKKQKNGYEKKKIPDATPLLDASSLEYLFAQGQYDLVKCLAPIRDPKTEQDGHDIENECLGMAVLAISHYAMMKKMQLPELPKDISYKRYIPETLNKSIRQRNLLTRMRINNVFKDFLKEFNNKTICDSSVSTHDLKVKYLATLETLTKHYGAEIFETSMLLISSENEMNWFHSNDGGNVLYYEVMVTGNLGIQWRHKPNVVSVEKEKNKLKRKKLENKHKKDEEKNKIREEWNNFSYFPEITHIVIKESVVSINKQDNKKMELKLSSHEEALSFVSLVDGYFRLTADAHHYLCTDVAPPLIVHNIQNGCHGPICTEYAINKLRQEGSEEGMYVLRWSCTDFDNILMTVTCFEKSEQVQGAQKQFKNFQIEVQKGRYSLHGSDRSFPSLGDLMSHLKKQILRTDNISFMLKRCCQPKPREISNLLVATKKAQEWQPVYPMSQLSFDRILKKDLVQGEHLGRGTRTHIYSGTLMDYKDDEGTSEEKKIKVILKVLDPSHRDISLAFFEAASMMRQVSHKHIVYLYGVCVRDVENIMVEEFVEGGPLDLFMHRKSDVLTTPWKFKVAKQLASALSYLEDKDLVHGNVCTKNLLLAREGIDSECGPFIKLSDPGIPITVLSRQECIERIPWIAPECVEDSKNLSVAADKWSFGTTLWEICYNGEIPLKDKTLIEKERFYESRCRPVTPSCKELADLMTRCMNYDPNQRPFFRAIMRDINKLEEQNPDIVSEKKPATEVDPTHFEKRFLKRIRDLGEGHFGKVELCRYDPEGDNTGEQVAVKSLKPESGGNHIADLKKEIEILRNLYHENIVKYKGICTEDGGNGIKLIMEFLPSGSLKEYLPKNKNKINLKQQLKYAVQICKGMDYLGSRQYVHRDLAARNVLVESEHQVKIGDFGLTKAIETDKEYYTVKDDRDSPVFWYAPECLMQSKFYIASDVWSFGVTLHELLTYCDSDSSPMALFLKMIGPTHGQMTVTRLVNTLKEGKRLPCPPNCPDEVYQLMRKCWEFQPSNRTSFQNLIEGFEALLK
T4 sequence (Q07912 whole entry): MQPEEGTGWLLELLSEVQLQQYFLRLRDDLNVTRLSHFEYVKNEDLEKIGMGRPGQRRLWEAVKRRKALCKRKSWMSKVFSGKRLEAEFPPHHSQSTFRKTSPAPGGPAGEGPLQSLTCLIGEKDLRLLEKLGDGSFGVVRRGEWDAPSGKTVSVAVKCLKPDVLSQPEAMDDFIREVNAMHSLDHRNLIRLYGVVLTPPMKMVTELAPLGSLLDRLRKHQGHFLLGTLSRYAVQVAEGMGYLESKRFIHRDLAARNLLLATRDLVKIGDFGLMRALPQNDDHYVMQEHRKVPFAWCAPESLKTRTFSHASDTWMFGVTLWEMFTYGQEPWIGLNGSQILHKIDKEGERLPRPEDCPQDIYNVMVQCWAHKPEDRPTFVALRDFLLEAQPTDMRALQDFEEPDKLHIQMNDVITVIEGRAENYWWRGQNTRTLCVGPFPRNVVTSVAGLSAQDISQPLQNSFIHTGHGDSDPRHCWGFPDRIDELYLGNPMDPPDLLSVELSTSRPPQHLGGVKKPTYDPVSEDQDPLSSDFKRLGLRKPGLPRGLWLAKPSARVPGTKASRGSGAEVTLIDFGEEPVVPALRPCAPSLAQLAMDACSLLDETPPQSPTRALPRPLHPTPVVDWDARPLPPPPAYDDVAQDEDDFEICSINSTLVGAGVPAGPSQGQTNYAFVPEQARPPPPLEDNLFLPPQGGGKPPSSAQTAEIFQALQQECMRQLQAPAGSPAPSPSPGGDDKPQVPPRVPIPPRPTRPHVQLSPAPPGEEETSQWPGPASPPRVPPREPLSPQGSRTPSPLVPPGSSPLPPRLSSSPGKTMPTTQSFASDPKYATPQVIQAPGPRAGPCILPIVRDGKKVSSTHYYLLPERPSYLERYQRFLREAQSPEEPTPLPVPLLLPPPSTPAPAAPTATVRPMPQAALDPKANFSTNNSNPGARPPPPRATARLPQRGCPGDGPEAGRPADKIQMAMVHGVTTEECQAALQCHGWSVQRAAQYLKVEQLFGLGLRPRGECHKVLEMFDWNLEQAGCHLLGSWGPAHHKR
T2 sequence (Q13164 whole entry): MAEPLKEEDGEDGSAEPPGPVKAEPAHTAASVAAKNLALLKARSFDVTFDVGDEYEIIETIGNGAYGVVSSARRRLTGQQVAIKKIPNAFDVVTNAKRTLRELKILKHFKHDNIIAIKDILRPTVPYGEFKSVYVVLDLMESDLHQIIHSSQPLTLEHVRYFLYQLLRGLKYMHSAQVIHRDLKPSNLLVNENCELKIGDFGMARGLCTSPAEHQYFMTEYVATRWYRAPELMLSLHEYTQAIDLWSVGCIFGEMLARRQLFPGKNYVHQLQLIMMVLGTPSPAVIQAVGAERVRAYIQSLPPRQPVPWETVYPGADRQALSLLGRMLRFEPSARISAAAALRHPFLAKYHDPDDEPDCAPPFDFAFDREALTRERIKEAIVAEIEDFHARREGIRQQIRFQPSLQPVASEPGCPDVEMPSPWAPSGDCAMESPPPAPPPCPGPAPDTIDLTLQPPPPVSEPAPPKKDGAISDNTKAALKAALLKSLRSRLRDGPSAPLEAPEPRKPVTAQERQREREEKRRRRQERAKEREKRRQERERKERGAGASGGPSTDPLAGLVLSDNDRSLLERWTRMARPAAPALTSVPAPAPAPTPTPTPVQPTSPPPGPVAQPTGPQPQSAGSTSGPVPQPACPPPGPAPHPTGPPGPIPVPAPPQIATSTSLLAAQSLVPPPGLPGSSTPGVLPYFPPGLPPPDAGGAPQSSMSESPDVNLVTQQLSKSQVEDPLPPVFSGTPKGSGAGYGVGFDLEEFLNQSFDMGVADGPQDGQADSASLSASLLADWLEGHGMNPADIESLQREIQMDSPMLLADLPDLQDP

| SMILES | inhibition at 1 µM (JAK1) [%] | IC50 (ERK5) [µM] | inhibition at 1 µM (ERK5) [%] | AMPKa1 or AMPKa2 Inhibition % at indicated screening concentration (AMPKa1 or AMPKa2; screening concentration 1 μM) | ABL or ARG Inhibition % at indicated screening concentration (ABL or ARG; screening concentration 1 μM) | inhibition at 1 µM (TAO2) [%] | AurB or AurC Inhibition % at indicated screening concentration (AurB or AurC; screening concentration 1 μM) | inhibition at 1 µM (ACK) [%] | inhibition at 1 µM (AurA) [%] | inhibition at 10 µM (JAK1) [%] | inhibition at 10 µM (ERK5) [%] | AMPKa1 or AMPKa2 Inhibition % at indicated screening concentration (AMPKa1 or AMPKa2; screening concentration 10 μM) | ABL or ARG Inhibition % at indicated screening concentration (ABL or ARG; screening concentration 10 μM) | inhibition at 10 µM (TAO2) [%] | AurB or AurC Inhibition % at indicated screening concentration (AurB or AurC; screening concentration 10 μM) | inhibition at 10 µM (ACK) [%] | inhibition at 10 µM (AurA) [%] | EC50 (human PBMCs) [µM] |
| --- | --- | --- | --- | --- | --- | --- | --- | --- | --- | --- | --- | --- | --- | --- | --- | --- | --- | --- |
| CN1CCN([C@@H]2CCN(C(=O)c3ccc(Nc4cc5c(cn4)N(C)C(=O)c4ccccc4N5C)c(OC(F)F)c3)C2)CC1 [Compound T75] | ≤ 35 | ≤ 0.05 | > 90 | E (E is ≦35%) | E (E is ≦35%) | ≤ 35 | E (E is ≦35%) | ≤ 35 | ≤ 35 | – | – | – | – | – | – | – | – | 1.55 ± 1.11 |
| CCOc1cc(C(=O)N2CCN(C3CCN(C)CC3)CC2)ccc1Nc1cc2c(cn1)N(C)C(=O)c1ccccc1N2C1CC1 [Compound T79] | ≤ 35 | ≤ 0.05 | > 90 | E (E is ≦35%) | E (E is ≦35%) | ≤ 35 | E (E is ≦35%) | ≤ 35 | ≤ 35 | – | – | – | – | – | – | – | – | 7.2 |
| CCOc1cc(C(=O)N2CCN(C3CCN(C)CC3)CC2)ccc1Nc1cc2c(cn1)N(C)C(=N)c1ccccc1N2C [Compound T80] | – | > 0.5 | – | – | – | – | – | – | – | ≤ 35 | ≤ 35 | E (E is ≦35%) | E (E is ≦35%) | ≤ 35 | E (E is ≦35%) | ≤ 35 | ≤ 35 | > 15 |
| CCOc1cc(C(=O)N2CCC(N3CCN(C)CC3)CC2)ccc1Nc1cc2c(cn1)N(C)C(=O)c1ccccc1N2S(C)(=O)=O [Compound T85] | ≤ 35 | > 0.5 | ≤ 35 | E (E is ≦35%) | E (E is ≦35%) | ≤ 35 | E (E is ≦35%) | ≤ 35 | ≤ 35 | – | – | – | – | – | – | – | – | > 15 |
| CN1C(=O)c2ccccc2N(C)c2cc(N[C@H]3C[C@H](O)C3)ncc21 [Compound T88] | – | > 0.5 | – | – | – | – | – | – | – | ≤ 35 | 75 to 90 | E (E is ≦35%) | E (E is ≦35%) | 35 to 50 | B (B is >75% to ≦90%) | ≤ 35 | 50 to 75 | 2.53 |
| CCOc1cc(C(=O)N2CCN(C3CCN(C)CC3)CC2)ccc1Nc1cc2c(cn1)N(C)C(=O)c1ccccc1[S+]2[O-] (stereo not shown) [Compound T100] | – | > 0.5 | – | – | – | – | – | – | – | ≤ 35 | 75 to 90 | E (E is ≦35%) | E (E is ≦35%) | ≤ 35 | E (E is ≦35%) | ≤ 35 | ≤ 35 | > 15 |

The next lines start with results.

| inhibition at 1 µM (JAK1) [%] | IC50 (ERK5) [µM] | inhibition at 1 µM (ERK5) [%] | AMPKa1 or AMPKa2 Inhibition % at indicated screening concentration (AMPKa1 or AMPKa2; screening concentration 1 μM) | ABL or ARG Inhibition % at indicated screening concentration (ABL or ARG; screening concentration 1 μM) | inhibition at 1 µM (TAO2) [%] | AurB or AurC Inhibition % at indicated screening concentration (AurB or AurC; screening concentration 1 μM) | inhibition at 1 µM (ACK) [%] | inhibition at 1 µM (AurA) [%] | inhibition at 10 µM (JAK1) [%] | inhibition at 10 µM (ERK5) [%] | AMPKa1 or AMPKa2 Inhibition % at indicated screening concentration (AMPKa1 or AMPKa2; screening concentration 10 μM) | ABL or ARG Inhibition % at indicated screening concentration (ABL or ARG; screening concentration 10 μM) | inhibition at 10 µM (TAO2) [%] | AurB or AurC Inhibition % at indicated screening concentration (AurB or AurC; screening concentration 10 μM) | inhibition at 10 µM (ACK) [%] | inhibition at 10 µM (AurA) [%] | SMILES | EC50 (human PBMCs) [µM] |
| --- | --- | --- | --- | --- | --- | --- | --- | --- | --- | --- | --- | --- | --- | --- | --- | --- | --- | --- |
| ≤ 35 | ≤ 0.05 | > 90 | E (E is ≦35%) | E (E is ≦35%) | ≤ 35 | D (D is >35% to ≦50%) | ≤ 35 | ≤ 35 | – | – | – | – | – | – | – | – | CN1C(=O)c2ccccc2N(C)c2cc(Nc3ccc(C(=O)N4CCN(S(C)(=O)=O)CC4)cc3F)ncc21 [Compound T72] | 4.25 |
| ≤ 35 | > 0.5 | 35 to 50 | E (E is ≦35%) | E (E is ≦35%) | ≤ 35 | E (E is ≦35%) | ≤ 35 | ≤ 35 | – | – | – | – | – | – | – | – | CCOc1cc(C(=O)N2CCN(C(C)=O)CC2)ccc1Nc1cc2c(cn1)N(C)C(=O)c1scnc1N2C [Compound T73] | > 10 |
| ≤ 35 | > 0.5 | 50 to 75 | E (E is ≦35%) | E (E is ≦35%) | ≤ 35 | E (E is ≦35%) | ≤ 35 | ≤ 35 | – | – | – | – | – | – | – | – | CCOc1cc(C(=O)N2CC[C@@H](N3CCN(C)CC3)C2)ccc1Nc1cc2c(cn1)N(C)C(=O)c1scnc1N2C [Compound T74] | 4.82 |
| ≤ 35 | 0.05 to 0.1 | > 90 | E (E is ≦35%) | E (E is ≦35%) | ≤ 35 | E (E is ≦35%) | ≤ 35 | ≤ 35 | – | – | – | – | – | – | – | – | [2H]C([2H])([2H])N1C(=O)c2ccccc2N(C([2H])([2H])[2H])c2cc(Nc3ccc(C(=O)N4CCN(C(C)=O)CC4)cc3OCC)ncc21 [Compound T77] | 6.33 |

Source: patent US20170008888A1 (KYORIN PHARMACEUTICAL CO., LTD., priority 2014, published 2017)
